Source: patent publication US20200369667A1, “HETEROCYCLIC COMPOUNDS AS PRMT5 INHIBITORS” (ANGEX PHARMACEUTICAL, INC., priority 2017, published 2020)

The compounds below were run against PRMT5:MEP50 (Homo sapiens, UniProt O14744) (assay: PRMT5:MEP50 Flashplate Assay). Conditions: PRMT5:MEP50 inhibitory activity, 3H-SAM FlashPlate, class symbol.
Type: biochemical
Description: Ten-point curves of inhibitor compounds were made using serial threefold dilutions in DMSO (the final top concentration of compound was 10 μM, 1% DMSO). Reaction mixture consisting of 50 mM Tris-HCl (pH 8.5), 0.002% Tween20, 0.005% BSA (Bovine Serum Albumin), 1 mM TCEP, and 1% DMSO. Substrates are freshly prepared in reaction buffer. PRMT5:MEP50 was then added into substrate solution and mixed gently. Inhibitor compound was then added and incubated for 30 min at room temperature. ^3H-SAM was added to initiate the reaction. Reactions were incubated for 2 h at room temperature and quenched with 0.5 mM SAM (S-adenosyl-L-Methionine) in assay buffer. An aliquot of the reaction mix was transferred to a streptavidin-coated 384-well FlashPlate (PerkinElmer). After an incubation time of 1 h, the plate was washed and then read on a TopCount (PerkinElmer) to measure the amount of tritium incorporated into the peptide substrate. IC50 was calculated using conventional curve-fitting method.

Chain of PRMT5:MEP50 (O14744 whole entry, species assumed): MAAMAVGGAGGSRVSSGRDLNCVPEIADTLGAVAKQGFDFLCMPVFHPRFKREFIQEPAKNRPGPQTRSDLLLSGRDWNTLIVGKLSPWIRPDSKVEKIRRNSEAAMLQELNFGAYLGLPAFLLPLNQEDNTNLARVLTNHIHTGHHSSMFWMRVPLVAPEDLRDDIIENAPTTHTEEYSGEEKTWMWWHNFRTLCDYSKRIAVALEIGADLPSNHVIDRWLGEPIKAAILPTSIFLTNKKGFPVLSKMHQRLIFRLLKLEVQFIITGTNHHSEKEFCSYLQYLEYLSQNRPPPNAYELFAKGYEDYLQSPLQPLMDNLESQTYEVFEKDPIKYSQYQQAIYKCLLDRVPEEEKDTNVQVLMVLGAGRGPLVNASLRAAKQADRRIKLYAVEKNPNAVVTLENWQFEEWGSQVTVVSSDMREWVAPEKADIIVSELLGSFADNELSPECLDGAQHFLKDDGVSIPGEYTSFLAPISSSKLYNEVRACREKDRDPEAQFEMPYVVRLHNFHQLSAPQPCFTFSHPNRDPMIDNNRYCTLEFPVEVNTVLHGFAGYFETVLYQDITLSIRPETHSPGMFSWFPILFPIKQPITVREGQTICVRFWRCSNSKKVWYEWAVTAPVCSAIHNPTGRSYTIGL
Chain of PRMT5:MEP50 (Q9BQA1 whole entry partner, species assumed): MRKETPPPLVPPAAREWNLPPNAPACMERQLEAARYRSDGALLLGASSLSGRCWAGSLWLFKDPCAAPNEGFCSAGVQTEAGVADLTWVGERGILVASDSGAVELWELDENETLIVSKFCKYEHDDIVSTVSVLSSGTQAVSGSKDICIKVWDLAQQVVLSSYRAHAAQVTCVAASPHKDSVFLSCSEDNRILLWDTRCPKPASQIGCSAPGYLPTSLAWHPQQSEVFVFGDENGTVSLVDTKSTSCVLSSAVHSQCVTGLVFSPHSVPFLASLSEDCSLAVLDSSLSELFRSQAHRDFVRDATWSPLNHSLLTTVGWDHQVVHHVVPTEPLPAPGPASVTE

IC50 [nM] | SMILES
< 1 | Cn1c(N)nc2cc(CC[C@H]3C[C@@H](n4ccc5c(N)ncnc54)[C@H](O)[C@@H]3O)ccc2c1=O [Compound 1-7, 2-amino-7-(2-((1S,2R,3S,4R)-4-(4-amino-7H-pyrrolo[2,3-d]pyrimidin-7-yl)-2,3-dihydroxycyclopentyl)ethyl)-3-methylquinazolin-4(3H)-one]
< 1 | C[C@H]1COc2cc3ccc(CC[C@H]4C[C@@H](n5ccc6c(N)ncnc65)[C@H](O)[C@@H]4O)cc3nc2N1 [Compound 1-8, (1R,2S,3R,5S)-3-(4-amino-7H-pyrrolo[2,3-d]pyrimidine-7-yl)-5-(2-((S)-3-methyl-3,4-dihydro-2H-[1,4]oxazino[3,2-b]quinoline-7-yl)ethyl)cyclopentane-1,2-diol]
< 1 | C[C@@H]1COc2cc3ccc(CC[C@H]4C[C@@H](n5ccc6c(N)ncnc65)[C@H](O)[C@@H]4O)cc3nc2N1 [Compound 1-9]
< 1 | C[C@@H]1CNc2nc3cc(CC[C@H]4C[C@@H](n5ccc6c(N)ncnc65)[C@H](O)[C@@H]4O)ccc3cc2O1 [Compound 1-10]
< 1 | C[C@H]1CNc2nc3cc(CC[C@H]4C[C@@H](n5ccc6c(N)ncnc65)[C@H](O)[C@@H]4O)ccc3cc2O1 [Compound 1-11]
< 1 | Nc1ncnc2c1ccn2[C@@H]1C[C@H](CCc2ccc3cc4c(nc3c2)NC(=O)CO4)[C@@H](O)[C@H]1O [Compound 1-12]
< 1 | Nc1ncnc2c1ccn2[C@@H]1C[C@H](CCc2ccc3cc4c(nc3c2)NCCS4)[C@@H](O)[C@H]1O [Compound 1-13]
< 1 | CN1C(N)=Nc2cc(CC[C@H]3C[C@@H](n4ccc5c(N)ncnc54)[C@H](O)[C@@H]3O)ccc2S1(=O)=O [Compound 1-14]
1 to 100 | CC1(C)C(N)=Nc2cc(CC[C@H]3C[C@@H](n4ccc5c(N)ncnc54)[C@H](O)[C@@H]3O)ccc2S1(=O)=O [Compound 1-15]
< 1 | CC1(C)Oc2ccc(CC[C@H]3C[C@@H](n4ccc5c(N)ncnc54)[C@H](O)[C@@H]3O)cc2N=C1N [Compound 1-16]
< 1 | Nc1ncnc2c1ccn2[C@@H]1C[C@H](CCc2ccc3c(=O)n(C4CC4)c(N)nc3c2)[C@@H](O)[C@H]1O [Compound 1-17]
1 to 100 | CC1(C)Cn2c(nc3cc(CC[C@H]4C[C@@H](n5ccc6c(N)ncnc65)[C@H](O)[C@@H]4O)ccc3c2=O)N1 [Compound 1-18]
1 to 100 | CN1C(N)=Nc2cc(CC[C@H]3O[C@@H](n4ccc5c(N)ncnc54)[C@H](O)[C@@H]3O)ccc2S1(=O)=O [Compound 2-8]
1 to 100 | C[C@@H]1CNc2nc3cc(CC[C@H]4O[C@@H](n5ccc6c(N)ncnc65)[C@H](O)[C@@H]4O)ccc3cc2O1 [Compound 2-9]
1 to 100 | C[C@H]1CNc2nc3cc(CC[C@H]4O[C@@H](n5ccc6c(N)ncnc65)[C@H](O)[C@@H]4O)ccc3cc2O1 [Compound 2-10]
1 to 100 | CC1(C)C(N)=Nc2cc(CC[C@H]3O[C@@H](n4ccc5c(N)ncnc54)[C@H](O)[C@@H]3O)ccc2S1(=O)=O [Compound 2-11]
< 1 | CC1(C)Oc2ccc(CC[C@H]3O[C@@H](n4ccc5c(N)ncnc54)[C@H](O)[C@@H]3O)cc2N=C1N [Compound 2-12]
1 to 100 | Nc1nc2cc(CCC[C@H]3C[C@@H](n4ccc5c(N)ncnc54)[C@H](O)[C@@H]3O)ccc2cc1Br [Compound 3-7]
< 1 | Nc1ncnc2c1ccn2[C@@H]1C[C@H](CCc2ccc3cc4c(nc3c2)NC(=O)CS4)[C@@H](O)[C@H]1O [Compound 4-3]
